Data as given in patent US11098061B2 (Celgene CAR LLC, priority 2013, dated 2021).

Key:
[1] = biological target: p38a activated, mitogen-activated protein kinase-activated protein kinase 2 (MAPKAP-K2 or MK-2) enzyme (Homo sapiens (Human), UniProt P49137); assay: MK2 Omnia continuous-read kinase assay for compound potency; type: biochemical; conditions: [MK-2]=0.4 nM, [ATP]=1.0 mM, [ST3-Sox]=10 μM
Text: The protocol below describes a continuous-read kinase assay optimized to measure potency of compounds against p38a activated, mitogen-activated protein kinase-activated protein kinase 2 (MAPKAP-K2 or MK-2) enzyme. The mechanics of the assay platform are best described by the vendor (Invitrogen, Carlsbad, Calif.) on their website at the following URL: invitrogen.com/search/global/searchAction. action?resultPage=1 &resultsPerPage=15 &query=om nia&personaFilterTerm=Support+%26+Troubleshoot
Kinase reactions were started with the addition of 40 μL of MK-2 enzyme and monitored every 71 seconds for 30-240 minutes at λex360/λem485 in a Synergy^2, Synergy^4 or Synergy H^4 plate reader from BioTek (Winooski, Vt.). […] Initial velocity (0 minutes to +30 minutes) from each reaction was estimated from the slope of a plot of relative fluorescence units vs time (minutes) and normalized to the no enzyme and no inhibitor control groups for % Inhibition. The resulting % Inhibition values were then plotted against inhibitor concentration to estimate IC50 from log[Inhibitor] vs Response, Variable Slope model in GraphPad Prism from GraphPad Software (San Diego, Calif.).
[MK-2]=0.4 nM, [ATP]=1.0 mM and [ST3-Sox]=10 μM (ATP ^appKM=8-10 μM)

MK2 = MK2 (Homo sapiens (Human), UniProt P49137); assay: MK2 modification assessment by whole protein mass spectrometry; type: binding; conditions: intact MK2, 60 min, 10-fold excess of compound to protein
Chain of MK2 (P49137 whole entry): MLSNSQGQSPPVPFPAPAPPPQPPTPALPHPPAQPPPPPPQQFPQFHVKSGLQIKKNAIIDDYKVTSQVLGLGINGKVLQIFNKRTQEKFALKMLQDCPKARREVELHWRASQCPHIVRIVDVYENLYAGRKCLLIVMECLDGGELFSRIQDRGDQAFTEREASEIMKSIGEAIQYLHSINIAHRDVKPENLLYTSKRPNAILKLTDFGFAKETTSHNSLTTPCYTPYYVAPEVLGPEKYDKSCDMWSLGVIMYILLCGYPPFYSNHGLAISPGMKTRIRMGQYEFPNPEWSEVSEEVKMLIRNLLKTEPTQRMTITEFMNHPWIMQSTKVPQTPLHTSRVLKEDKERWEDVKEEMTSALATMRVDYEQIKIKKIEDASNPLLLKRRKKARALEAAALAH
Protocol: Modification of MK2 is measured by whole protein MS analysis. […] 5 μL aliquots of the samples were diluted with 15 μL of 0.2% TFA prior to micro C4 ZipTipping directly onto the MALDI target using sinapinic acid as the desorption matrix (10 mg/ml in 0.1% TFA:Acetonitrile 50:50). Analysis was performed on a AB Sciex 4800 MALDI TOF/TOF retro fitted with an HM2 detector (CovalX). Percent modification of target MK2 (i.e., the percent of total MK2 modified by the test compound) for each compound was calculated by subtracting the centroid mass of the compound treated MK2 from the centroid mass of the control MK2 and dividing that value with the mass of the compound.

Chain of p38a activated, mitogen-activated protein kinase-activated protein kinase 2 (MAPKAP-K2 or MK-2) enzyme (P49137 whole entry): as above

| SMILES | IC50 [1] | MK2 Mass Mod (MK2) |
| --- | --- | --- |
| C=CC(=O)Nc1cccc2oc(-c3ccc4cc5n(c4c3)CCNC5=O)nc12 [Compound V-31, N-(2-(1-oxo-1,2,3,4-tetrahydropyrazino[1,2-a]indol-7-yl)benzo[d]oxazol-4-yl)acrylamide] | 0.501 to 0.999 µM | E (mass modification of ≥70%) |
| C=CC(=O)N[C@H]1CCCC[C@H]1NC(=O)c1ccc2cc3n(c2c1)C1(CCC1)CNC3=O (racemic) [Compound V-46, Cis-N-(2-acrylamidocyclohexyl)-1′-oxo-2′,3′-dihydro-1′H-spiro[cyclobutane-1,4′-pyrazino[1,2-a]indole]-7′-carboxamide (racemic)] | > 1 µM | G (mass modification ≤30%) |
| C=CC(=O)Nc1cc(C(=O)Nc2cc(-c3cc4c([nH]3)C3(CCCNC3)CNC4=O)ccn2)ccc1F (racemic) [Compound I-24, 3-acrylamido-4-fluoro-N-(4-(4′-oxo-1′,4′,5′,6′-tetrahydrospiro[piperidine-3,7′-pyrrolo[3,2-c]pyridin]-2′-yl)pyridin-2-yl)benzamide] | 0.101 to 0.5 µM | F (mass modification of 31-69%) |
| C=CC(=O)Nc1cc(-c2cc(-c3cc4n(c3)CCNC4=O)ccn2)ccc1OC [V-c-1, N-(2-methoxy-5-(4-(1-oxo-1,2,3,4-tetrahydropyrrolo[1,2-a]pyrazin-7-yl)pyridin-2-yl)phenyl)acrylamide] | – | F (mass modification of 31-69%) |
| C=CC(=O)Nc1ccccc1NC(=O)c1ccc2cc3n(c2c1)CCNC3=O [Compound V-8, N-(2-acrylamidophenyl)-1-oxo-1,2,3,4-tetrahydropyrazino[1,2-a]indole-7-carboxamide] | > 1 µM | E (mass modification of ≥70%) |
| C=CC(=O)Nc1ccccc1NC(=O)c1ccc2cc3n(c2c1)C1(CCC1)CNC3=O [Compound V-14, N-(2-acrylamidophenyl)-1′-oxo-2′,3′-dihydro-1′H-spiro[cyclobutane-1,4′-pyrazino [1,2-a]indole]-7′-carboxamide] | > 1 µM | E (mass modification of ≥70%) |
| C=CC(=O)Nc1c(C)ccc2oc(-c3ccc4cc5n(c4c3)C3(CCC3)CNC5=O)nc12 [Compound V-12, N-(5-methyl-2-(1′-oxo-2′,3′-dihydro-1′H-spiro[cyclobutane-1,4′-pyrazino [1,2-a]indol]-7′-yl)benzo[d]oxazol-4-yl)acrylamide] | > 1 µM | – |
| C=CC(=O)Nc1ccc2oc(-c3ccc4cc5n(c4c3)C3(CCC3)CNC5=O)nc2c1 [Compound V-60, N-(2-(1′-oxo-2′,3′-dihydro-1′H-spiro[cyclobutane-1,4′-pyrazino [1,2-a]indol]-7′-yl)benzo[d]oxazol-5-yl)acrylamide] | < 0.1 µM | G (mass modification ≤30%) |
| C=CC(=O)Nc1cc(-c2cc3c(cn2)CCc2c-3[nH]c3c2C(=O)NCC3)ccc1OCCCNC(=O)CCCC(=O)NCCCOCCOCCOCCCNC(=O)CCCC[C@H]1SC[C@H]2NC(=O)N[C@H]21 [Probe 2, N1-(3-(2-acrylamido-4-(7-oxo-6,7,8,9,10,11-hexahydro-5H-pyrido[3′,4′:4,5]pyrrolo[2,3-f]isoquinolin-2-yl)phenoxy)propyl)-N5-(15-oxo-19-((3aR,4R,6aS)-2-oxohexahydro-1H-thieno[3,4-d]imidazol-4-yl)-4,7,10-trioxa-14-azanonadecyl)glutaramide] | < 0.1 µM | – |
| C=CC(=O)Nc1cccc(NC(=O)c2ccc3cc4n(c3c2)CCNC4=O)c1 [Compound V-7, N-(3-acrylamidophenyl)-1-oxo-1,2,3,4-tetrahydropyrazino[1,2-a]indole-7-carboxamide] | > 1 µM | F (mass modification of 31-69%) |
| C=CC(=O)Nc1cc(NC(=O)c2ccc3cc4n(c3c2)CCNC4=O)ccc1N1CCN(CC)CC1 [Compound V-1, N-(3-acrylamido-4-(4-ethylpiperazin-1-yl)phenyl)-1-oxo-1,2,3,4-tetrahydropyrazino[1,2-a]indole-7-carboxamide] | 0.501 to 0.999 µM | E (mass modification of ≥70%) |
| CN(C)C/C=C/C(=O)Nc1ccccc1NC(=O)c1ccc2cc3n(c2c1)CCNC3=O [Compound V-5, (E)-N-(2-(4-(dimethylamino)but-2-enamido)phenyl)-1-oxo-1,2,3,4-tetrahydropyrazino[1,2-a]indole-7-carboxamide] | > 1 µM | G (mass modification ≤30%) |
| C=CC(=O)N[C@H]1CN(C(=O)c2ccc3cc4n(c3c2)CCNC4=O)CC[C@H]1C [Compound V-2, N-((3R,4R)-4-methyl-1-(1-oxo-1,2,3,4-tetrahydropyrazino[1,2-a]indole-7-carbonyl)piperidin-3-yl)acrylamide] | > 1 µM | G (mass modification ≤30%) |
| C=CC(=O)Nc1ccccc1Nc1nccc(-c2cc3c([nH]2)C2(CCCNC2)CNC3=O)n1 (racemic) [Compound I-5, N-(2-((4-(4′-oxo-1′,4′,5′,6′-tetrahydrospiro[piperidine-3,7′-pyrrolo[3,2-c]pyridin]-2′-yl)pyrimidin-2-yl)amino)phenyl)acrylamide] | > 1 µM | F (mass modification of 31-69%) |
| C=CC(=O)NCc1csc(NC(=O)c2ccc3cc4n(c3c2)C2(CCC2)CNC4=O)n1 [Compound V-43, N-(4-(acrylamidomethyl)thiazol-2-yl)-1′-oxo-2′,3′-dihydro-1′H-spiro[cyclobutane-1,4′-pyrazino[1,2-a]indole]-7′-carboxamide] | > 1 µM | G (mass modification ≤30%) |
| C=CC(=O)Nc1c(C)c(NC2CCCNC2)nc2ccnn12 (stereo not shown) [IV-b-1, N-(6-methyl-5-(piperidin-3-ylamino)pyrazolo [1,5-a]pyrimidin-7-yl)acrylamide] | 0.101 to 0.5 µM | – |
| C=CC(=O)Nc1cc(-c2cc3c(cn2)CCc2c-3[nH]c3c2C(=O)NCC3)ccc1OCCCNC(=O)CCCC(=O)NCCCOCCOCCOCCCNC(=O)CCCC[C@H]1SC[C@H]2NC(=O)N[C@H]21 [Probe 1] | < 0.1 µM | – |
| C=CC(=O)NC1CCCCC1NC(=O)c1ccc2cc3n(c2c1)C1(CCC1)CNC3=O (racemic) [Compound V-64, trans-(2-acrylamidocyclohexyl)-1′-oxo-2′,3′-dihydro-1′H-spiro[cyclobutane-1,4′-pyrazino[1,2-a]indole]-7′-carboxamide (racemic)] | > 1 µM | – |

The remaining lines, values ahead:

| IC50 [1] | MK2 Mass Mod (MK2) | SMILES |
| --- | --- | --- |
| < 0.1 µM | G (mass modification ≤30%) | C=CC(=O)NC1CN(C)CC1NC(=O)c1ccc2sc3c(c2c1)NC[C@@H](C)NC3=O (stereo partly shown) [III-50] |
| 0.501 to 0.999 µM | G (mass modification ≤30%) | C=CC(=O)Nc1cc(Nc2c(C)c(NC3CCCNC3)nc3ccnn23)ccc1OCC (stereo not shown) [IV-1, N-(2-ethoxy-5-((6-methyl-5-(piperidin-3-ylamino)pyrazolo [1,5-a]pyrimidin-7-yl)amino)phenyl)acrylamide] |
| < 0.1 µM | E (mass modification of ≥70%) | C=CC(=O)Nc1cc(-c2nccc(-c3cc4c([nH]3)CCNC4=O)n2)ccc1OCCOC [II-22, N-(2-(2-methoxyethoxy)-5-(4-(4-oxo-4,5,6,7-tetrahydro-1H-pyrrolo[3,2-c]pyridin-2-yl)pyrimidin-2-yl)phenyl)acrylamide] |
| < 0.1 µM | E (mass modification of ≥70%) | C=CC(=O)Nc1cc(-c2nccc(-c3cc4c([nH]3)CCNC4=O)n2)cnc1OCCOC [II-21, N-(2-(2-methoxyethoxy)-5-(4-(4-oxo-4,5,6,7-tetrahydro-1H-pyrrolo[3,2-c]pyridin-2-yl)pyrimidin-2-yl)pyridin-3-yl)acrylamide] |
| < 0.1 µM | E (mass modification of ≥70%) | C=CC(=O)N1CCOc2ncc(-c3ncc4c(n3)-c3[nH]c5c(c3CC4)C(=O)NCC5)cc21 [II-17, 2-(1-acryloyl-2,3-dihydro-1H-pyrido[2,3-b][1,4]oxazin-7-yl)-8,9,10,11-tetrahydro-SH-pyrido[3′,4′:4,5]pyrrolo[3,2-h]quinazolin-7(6H)-one] |
| > 1 µM | G (mass modification ≤30%) | CC(C)=CC(=O)COc1cc(NC(=O)c2ccc3sc4c(c3c2)NC[C@@H](C)NC4=O)ccc1F [III-2, (R)—N-(4-fluoro-3-((4-methyl-2-oxopent-3-en-1-yl)oxy)phenyl)-3-methyl-5-oxo-2,3,4,5-tetrahydro-1H-benzo[4,5]thieno[3,2-e][1,4]diazepine-9-carboxamide] |
| < 0.1 µM | E (mass modification of ≥70%) | C=CC(=O)N1CCOc2ncc(-c3nccc(-c4cc5c([nH]4)CCNC5=O)n3)cc21 [II-23, 2-(2-(1-acryloyl-2,3-dihydro-1H-pyrido[2,3-b][1,4]oxazin-7-yl)pyrimidin-4-yl)-6,7-dihydro-1H-pyrrolo[3,2-c]pyridin-4(5H)-one] |
| < 0.1 µM | G (mass modification ≤30%) | C=CC(=O)NC1CS(=O)(=O)CC1NC(=O)c1ccc2sc3c(c2c1)NC[C@@H](C)NC3=O (stereo partly shown) [III-49] |
